Source: ChEMBL document CHEMBL5625171, “Design, synthesis, and biological studies of novel sulfonamide derivatives as farnesoid X receptor agonists” (Eur J Med Chem, 2023)

Key:
Bile acid receptor = biological target: T1, Bile acid receptor (Homo sapiens, UniProt Q96RI1); test: Agonist activity at FXR LBD (unknown origin) using fluorescein-SRC2-2 as substrate incubated for 3 hrs by TR-FRET assay
T1 sequence (Q96RI1 whole entry): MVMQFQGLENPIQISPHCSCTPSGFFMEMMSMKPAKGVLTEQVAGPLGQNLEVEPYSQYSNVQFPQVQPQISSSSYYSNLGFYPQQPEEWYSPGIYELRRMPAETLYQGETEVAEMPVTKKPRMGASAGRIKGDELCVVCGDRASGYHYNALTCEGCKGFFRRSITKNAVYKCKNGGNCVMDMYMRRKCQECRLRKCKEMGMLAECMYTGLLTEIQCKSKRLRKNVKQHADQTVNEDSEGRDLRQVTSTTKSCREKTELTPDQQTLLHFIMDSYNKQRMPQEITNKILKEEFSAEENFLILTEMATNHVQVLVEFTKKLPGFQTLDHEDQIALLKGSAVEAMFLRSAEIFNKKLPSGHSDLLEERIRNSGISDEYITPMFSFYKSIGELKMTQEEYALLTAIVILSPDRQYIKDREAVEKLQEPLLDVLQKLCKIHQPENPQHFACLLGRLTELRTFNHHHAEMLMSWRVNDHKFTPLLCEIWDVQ

[1] = Sub-acute toxicity in ICR mouse assessed as change in serum creatinine level at 500 mg/kg, po qd treated for 10 days; type: organism-based; conditions: in vivo, 240 h, time 10 day
[2] = Sub-acute toxicity in ICR mouse assessed as animal death at 500 mg/kg, po qd treated for 10 days; type: organism-based; conditions: in vivo, 240 h, time 10 day
[3] = Sub-acute toxicity in ICR mouse assessed as anomaly in liver at 500 mg/kg, po qd treated for 10 days; type: organism-based; conditions: in vivo, 240 h, time 10 day
[4] = Sub-acute toxicity in ICR mouse assessed as change in serum TG level at 500 mg/kg, po qd treated for 10 days; type: organism-based; conditions: in vivo, 240 h, time 10 day
[5] = Sub-acute toxicity in ICR mouse assessed as anomaly in heart at 500 mg/kg, po qd treated for 10 days; type: organism-based; conditions: in vivo, 240 h, time 10 day
[6] = Sub-acute toxicity in ICR mouse assessed as change in serum ALP level at 500 mg/kg, po qd treated for 10 days; type: organism-based; conditions: in vivo, 240 h, time 10 day
[7] = Sub-acute toxicity in ICR mouse assessed as abnormal behaviour at 500 mg/kg, po qd treated for 10 days; type: organism-based; conditions: in vivo, 240 h, time 10 day
[8] = Sub-acute toxicity in ICR mouse assessed as change in serum TBIL level at 500 mg/kg, po qd treated for 10 days; type: organism-based; conditions: in vivo, 240 h, time 10 day
[9] = Sub-acute toxicity in ICR mouse assessed as anomaly in kidney at 500 mg/kg, po qd treated for 10 days; type: organism-based; conditions: in vivo, 240 h, time 10 day
[10] = Sub-acute toxicity in ICR mouse assessed as change in serum AST level at 500 mg/kg, po qd treated for 10 days; type: organism-based; conditions: in vivo, 240 h, time 10 day
[11] = Sub-acute toxicity in ICR mouse assessed as anomaly in spleen at 500 mg/kg, po qd treated for 10 days; type: organism-based; conditions: in vivo, 240 h, time 10 day
[12] = Sub-acute toxicity in ICR mouse assessed as change in serum urea level at 500 mg/kg, po qd treated for 10 days; type: organism-based; conditions: in vivo, 240 h, time 10 day
[13] = Sub-acute toxicity in ICR mouse assessed as change in serum DBIL level at 500 mg/kg, po qd treated for 10 days; type: organism-based; conditions: in vivo, 240 h, time 10 day
[14] = Sub-acute toxicity in ICR mouse assessed as change in serum TC level at 500 mg/kg, po qd treated for 10 days; type: organism-based; conditions: in vivo, 240 h, time 10 day
[15] = Sub-acute toxicity in ICR mouse assessed as anomaly in lung at 500 mg/kg, po qd treated for 10 days; type: organism-based; conditions: in vivo, 240 h, time 10 day
[16] = Sub-acute toxicity in ICR mouse assessed as change in serum ALT level at 500 mg/kg, po qd treated for 10 days; type: organism-based; conditions: in vivo, 240 h, time 10 day

| SMILES | EC50 (Bile acid receptor) [µM] | further results |
| --- | --- | --- |
| CC#CC(CC(=O)O)c1ccc(OCc2ccc(N(CC(C)C)S(=O)(=O)c3c(Cl)cccc3Cl)cc2)cc1 (stereo not given) | > 10 | – |
| CC(C)CN(c1ccc(-c2cccc(C3(C(=O)O)CC3)c2)cc1)S(=O)(=O)c1c(Cl)cccc1Cl | > 10 | – |
| CC(C)CN(c1ccc(-c2ccc(C(=O)O)cc2)cc1)S(=O)(=O)c1c(Cl)cccc1Cl | 3.5 | – |
| CC(C)CN(c1ccc(-c2ccc(OC(C)C(=O)O)c(F)c2)cc1)S(=O)(=O)c1c(Cl)cccc1Cl (stereo not given) | 8.7 | – |
| CC(C)CN(c1ccc(-c2ccc(C(=O)NC3CC3)cc2)cc1)S(=O)(=O)c1c(Cl)cccc1Cl | > 10 | – |
| CC(C)CN(c1ccc(-c2ccc(CCC(=O)O)cc2)cc1)S(=O)(=O)c1c(Cl)cccc1Cl | 6.5 | – |
| CC(C)CN(c1ccc(-c2ccc(OC(C)(C)C(=O)O)c(F)c2)cc1)S(=O)(=O)c1c(Cl)cccc1Cl | > 10 | – |
| CC(C)CN(c1ccc(-c2ccc(OCC(=O)O)c(F)c2)cc1)S(=O)(=O)C1CCCCC1 | > 10 | – |
| CC(C)CN(c1ccc(-c2ccc(OCC(=O)O)cc2)cc1)S(=O)(=O)c1c(Cl)cccc1Cl | 0.89 | – |
| CC(C)CN(c1ccc(-c2cccc(C(=O)O)c2)cc1)S(=O)(=O)c1c(Cl)cccc1Cl | > 10 | – |
| CC(C)CN(c1ccc(-c2ccc(OCC(=O)O)c(F)c2)cc1)S(=O)(=O)c1c(Cl)cccc1Cl | – | Activity [1]: Non-Toxic; Activity [2]: Non-Toxic; Activity [3]: Non-Toxic; Activity [4]: Non-Toxic; Activity [5]: Non-Toxic; Activity [6]: Non-Toxic; Activity [7]: Non-Toxic; Activity [8]: Non-Toxic; Activity [9]: Non-Toxic; Activity [10]: Non-Toxic; Activity [11]: Non-Toxic; Activity [12]: Non-Toxic; Activity [13]: Non-Toxic; Activity [14]: Non-Toxic; Activity [15]: Non-Toxic; Activity [16]: Non-Toxic |
| Cc1ccc(S(=O)(=O)N(CC(C)C)c2ccc(-c3ccc(OCC(=O)O)c(F)c3)cc2)cc1 | > 10 | – |
| Cc1ccc(S(=O)(=O)N(CC(C)C)c2ccc(-c3ccc(CCC(=O)O)cc3)cc2)cc1 | > 10 | – |
| CC(C)CN(c1ccc(COc2cccc(CC(=O)O)c2)cc1)S(=O)(=O)c1c(Cl)cccc1Cl | > 10 | – |
| CC(C)CN(c1ccc(-c2cccc(CC(=O)O)c2)cc1)S(=O)(=O)c1c(Cl)cccc1Cl | > 10 | – |
| O=C(O)c1cccc(-c2ccc(N(CC3CC3)S(=O)(=O)c3c(Cl)cccc3Cl)cc2)c1 | > 10 | – |
| CC(C)CN(c1ccc(-c2ccc(C3(C(=O)O)CC3)cc2)cc1)S(=O)(=O)c1c(Cl)cccc1Cl | > 10 | – |
| CC(C)CN(c1ccc(-c2ccc(C(N)=O)cc2)cc1)S(=O)(=O)c1c(Cl)cccc1Cl | > 10 | – |
| CC(C)CN(c1ccc(COc2ccc3c(CC(=O)O)coc3c2)cc1)S(=O)(=O)c1c(Cl)cccc1Cl | > 10 | – |
| Cc1ccc(S(=O)(=O)N(CC(C)C)c2ccc(-c3ccc(C(=O)O)cc3)cc2)cc1 | > 10 | – |
